Measured values reported in US11951089B2, “Pharmaceutical composition for preventing or treating wound or scar, comprising benzbromarone” (INNOVO THERAPEUTICS INC., priority 2020, dated 2024).

How the values were obtained:
HSP47 = biological target: T1, HSP47 (Homo sapiens, UniProt P50454); experiment: Evaluation of HSP47 activity (inhibition of collagen fibril formation, OD 340 nm); format: biochemical; conditions: collagen fibril formation in PBS pH 7.4, 37° C.; HSP47 9.45 μg/ml; Prism
T1 construct: purchased GenScript US
Procedure: Fibrils were formed by adding 180 ul of phosphate-buffered saline (PBS, pH 7.4) solution to 20 ul of collagen dissolved in acidic solution (collagen solution, UK), which was measured at a wavelength of 340 nm. HSP47 (GenScript US) was added at a concentration of 9.45 μg/ml to evaluate HSP47 activity as the degree to which it inhibits fibril formation. Test compound was added with concentrations of 100 μM to 1 μM and the inhibitory activity of HSP47 was calculated as a percentage.
The OD measured when collagen was placed in PBS buffer (pH 7.4) to form fibrils at 37° C. was taken as 100%, and the OD measured when HSP47 and collagen were placed together to form fibrils was taken as 0%. The percentage of inhibition of HSP47 by the test compound at each concentration was measured. IC50 values were calculated using Prism software (Graphpad, USA).

[1] = tested on: Hepatic stellate cell LX-2; experiment: Sirius red assay, TGF-β1-induced fibrosis in hepatic stellate cell LX-2; format: cell-based; conditions: LX-2, 10 ng/ml TGF-β1 co-treatment; compared to the TGF-β1 treatment group; BBR 30 μM, 10 μM (FIG. 3)
Procedure: (§1) Hepatic stellate LX-2 (Elabscience CH), lung epithelial A549 (ATCC US), liver stellate T6 (Elabscience, CH), or skin KEL FIB (ATCC, US) cells were cultured in 24-well tissue culture plates for 18 hours, followed by TGF-beta 10 ng/ml treatment, and then incubated with test compounds for 24 hours. Cells were washed with PBS, fixed with Bouin's solution, and washed twice with distilled water. The fixed cells were stained with Sirius red for 2 hours to observe cellular morphological changes, and then washed with 0.01 N HCl solution. Collagen-bound Sirius red was extracted with 0.1 N NaOH solution, which was then quantified at a wavelength of 570 nm. The inhibitory efficacy of each compound on collagen production was shown as a percentage.
Hepatic stellate cell LX-2 was treated with 10 ng/ml TGF-β1 (Gibco, US) to induce fibrosis, and the benzbromarone (BBR) treatment group was treated with TGF-β1 and benzbromarone (BBR) simultaneously. The extent of fibrosis inhibition was observed by fixing the cells and staining them with Sirius Red, a collagen-specific stain, to observe morphological changes (FIG. 2A, 2B), and quantified by extracting Sirius Red with 0.1 N NaOH solution (FIG. 3).

Hepatic stellate cell T6 = experiment: Sirius red assay, TGF-β1-induced fibrosis in hepatic stellate cell T6; format: cell-based; conditions: T6, 10 ng/ml TGF-β1 co-treatment, 30 μM; compared to the TGF-β1 treatment group
Procedure: as §1
(§2) Hepatic stellate cell T6 was treated with 10 ng/ml TGF-β1 to induce fibrosis, and the test compound was treated simultaneously. The extent of fibrosis inhibition was observed by fixing the cells and staining them with Sirius Red, a collagen-specific stain, to observe morphological changes (FIG. 4A, 4B), and quantified by extracting Sirius Red with 0.1 N NaOH solution (FIG. 5).

[2] = tested on: Lung epithelial cells A549; experiment: Sirius red assay, TGF-β1-induced fibrosis in lung epithelial cells A549; format: cell-based
Procedure: as §1
as §2, with “Lung epithelial cells A549 were” for “Hepatic stellate cell T6 was”, “staining” for “staining them”, “6A, 6B),” for “4A, 4B),”, “7).” for “5).”

[3] = tested on: KEL FIB cells isolated from keloid patients; experiment: Sirius red assay, TGF-β1-induced fibrosis in dermal fibroblast KEL FIB cells; format: cell-based
Procedure: as §1
as §2, with “KEL FIB cells (ATCC, USA) isolated from keloid patients were” for “Hepatic stellate cell T6 was”, “8A, 8B),” for “4A, 4B),”, “9).” for “5).”

[4] = tested on: carbon tetrachloride-induced liver fibrosis; experiment: Carbon tetrachloride-induced liver fibrosis model in mice; format: in vivo; conditions: CCl4 4 weeks, oral, twice a day (30 mg/kg BID)
Procedure: CCl4 was administered intraperitoneally at 50 uL (1:1 corn oil) per mouse three times a week for 4 weeks, and the test compound was suspended in 0.5% methylcellulose and administered orally at a dose of 5 ml/kg daily. As a positive control, obeticholic acid (Medkoo, US) was administered at a dose of 30 mg/kg. Body weight was measured once a week during the study period. 28 days after CCl4 administration, […] were inhalationally anesthetized with ether, and once anesthesia was confirmed, they were laparotomized and blood was drawn using a syringe from the posterior vena cava, and then the abdominal aorta and posterior vena cava were cut to exsanguinate/death. Blood was separated into serum and blood biochemical tests were performed. The liver was removed and weighed, the right lobe was fixed in 10% neutral buffered formalin solution, and the left lobe was divided in half and quick-frozen in liquid nitrogen. The quick-frozen samples were stored in an ultra-low temperature freezer set below −70° C. and used for 4-Hydroxyproline assay. The fixed tissues were subjected to the usual tissue processing procedures such as cutting, dehydration, paraffin embedding, and sectioning to prepare specimens for histopathological examination. Hematoxylin & Eosin (H&E) and Picrosirius red staining were performed, and histopathological changes were observed using optical microscope (Olympus BX53, Japan), and the area of fibrosis was analyzed. To determine the extent of carbon tetrachloride-induced liver tissue damage and liver function, plasma alanine aminotransferase (ALT) and bilirubin levels were analyzed in the plasma collected from autopsy using a blood biochemistry analyzer (7180 Hitachi, Japan). […] As liver fibrosis progresses, collagen is deposited in liver tissue. The content of 4-hydroxyproline in collagen in a carbon tetrachloride-induced injured liver tissue was analyzed to determine the extent of fibrosis.

[5] = tested on: burn-induced skin scarring; experiment: Inhibition of burn-induced skin scarring in minipigs; format: in vivo, Yucatan minipigs; conditions: 1% ointment once daily topical, day 45 of burn induction
Procedure: Yucatan minipigs that had been fasted for at least 8 hours were anesthetized using xylazine hydrochloride, midazolam, and propofol. After removing the hair on the trunk and back, the test area was disinfected with povidone iodine solution. Burns were induced by contacting the test area with a 400-gram stainless steel weight for 40 seconds. Burns were applied 2 cm from the spine and 4 cm apart between burn sites. The burn area should not exceed 3.5% of the total animal area. 15 days after burning, the scab was removed and the test compound was applied to the wounds once daily. At 45 days after burn induction, autopsy was performed, and the wounds were fixed in formalin solution and H&E staining was performed to measure the thickness of the dermal layer. The test compound was suspended in propylene glycol (Yakuri pure chemicals, Japan) and made into a homogeneous suspension using an ultrasonic cleaner, which was then diluted in lanolin (Merck, USA) and petroleum jelly (Merck, USA) under 60° C. water bath to prepare an ointment. Each component of the prepared ointment is 1% (w/w) of the test compound, 20% (w/w) of propylene glycol, 15% (w/w) of lanolin, and 64% (w/w) of vaseline. […] The reduction of scar size and wound in the BBR treatment group (BBR 1%) was clearly shown numerically. […] Also, the numerical measurement of the hypertrophy of the dermis layer was shown in FIG. 15B, and the hypertrophy of the dermis layer was the lowest in the BBR treatment group (BBR 1%).

[6] = 10 ng/ml TGF-β1, Sirius Red quantified

T1 sequence (P50454 19-418, species assumed): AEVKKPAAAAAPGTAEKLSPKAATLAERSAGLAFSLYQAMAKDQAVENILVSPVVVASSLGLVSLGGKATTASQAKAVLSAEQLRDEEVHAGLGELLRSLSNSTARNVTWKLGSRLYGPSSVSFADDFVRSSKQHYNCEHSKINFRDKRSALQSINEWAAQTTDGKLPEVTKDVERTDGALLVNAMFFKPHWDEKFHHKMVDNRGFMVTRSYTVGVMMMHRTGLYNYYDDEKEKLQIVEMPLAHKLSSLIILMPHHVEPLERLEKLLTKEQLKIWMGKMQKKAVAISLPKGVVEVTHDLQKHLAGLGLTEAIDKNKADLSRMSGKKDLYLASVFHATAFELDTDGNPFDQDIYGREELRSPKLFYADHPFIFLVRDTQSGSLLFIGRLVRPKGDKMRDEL

SMILES: CCc1oc2ccccc2c1C(=O)c1cc(Br)c(O)c(Br)c1 [benzbromarone, (3,5-dibromo-4-hydroxyphenyl)-(2-ethyl-1-benzofuran-3-yl)methanone]
- IC50 (HSP47): 133 µM
- degree of fibrosis (Sirius Red, quantified) [1]: significantly reduced
- degree of fibrosis (Sirius Red, quantified) (Hepatic stellate cell T6): significantly reduced
- fibrosis by Sirius Red staining (morphology) ([2]; A549, 10 ng/ml TGF-β1 co-treatment, 30 μM): fibrosis was reduced
- IC50 ([2]; Homo sapiens, A549, 10 ng/ml TGF-β1, Sirius Red OD 570 nm, read-out: IC50 of fibrosis inhibition): 4.25 µM
- concentration at which the fibrosis inhibitory effect began to appear [3, 6]: 3 µM
- concentration from which fibrosis was significantly inhibited [3, 6]: ≥ 10 µM
- fibrosis by Sirius Red staining (morphology) ([3]; 10 ng/ml TGF-β1 co-treatment, 30 μM): fibrosis was reduced
- content of 4-hydroxyproline in liver tissue [4]: statistically significantly reduced
- plasma alanine aminotransferase (ALT) [4]: Statistically significant decreases
- plasma bilirubin [4]: Statistically significant decreases
- fibrosis area of liver tissue ([4]; versus obeticholic acid 30 mg/kg): comparable result with fibrosis inhibition as the obeticholic acid (OCA) treatment group
- scar extent compared to positive control triamcinolone 0.1% [5]: reduced
- scar size and wound extent compared to control group (Vehicle) [5]: significantly reduced
- hypertrophy of the dermis layer (scar tissue thickness, H&E) ([5]; versus other groups): lowest
